These results are taken from patent US20220235011A1, “PHTHALAZINONE COMPOUNDS AND USE THEREOF” (ST PHARM CO., LTD., priority 2019, published 2022).

Molecules are shown by their SMILES.

T1 sequence (Q8N6T7 whole entry): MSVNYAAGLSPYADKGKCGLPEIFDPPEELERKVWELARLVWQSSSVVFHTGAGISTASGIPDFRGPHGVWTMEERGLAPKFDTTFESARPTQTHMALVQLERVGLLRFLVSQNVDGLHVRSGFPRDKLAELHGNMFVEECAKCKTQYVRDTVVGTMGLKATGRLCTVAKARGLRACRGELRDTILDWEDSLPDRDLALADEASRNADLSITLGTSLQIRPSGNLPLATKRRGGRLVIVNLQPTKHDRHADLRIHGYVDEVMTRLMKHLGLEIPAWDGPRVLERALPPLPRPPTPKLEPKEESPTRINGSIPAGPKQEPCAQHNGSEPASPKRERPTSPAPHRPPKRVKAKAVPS

The first experiment concerns the target T1, Sirt6 (Homo sapiens, UniProt Q8N6T7).
T1 construct: purchased CycLex CY-1156V2
Kind of experiment: Measurement of Sirt6 Activity (CycLex Sirt6 Deacetylase Fluorometric Assay Kit). The settings on record: compound at 10 μM; fluorescence relative to the group without compound treatment (positive control group). In kind it is biochemical. The method in brief: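 Recombinant Sirt6 with fluoro-labelled acetyl-lysine peptide, NAD and lysylendopeptidase developer, compound added from 10× stock in PBS; 1 h at room temperature. Fluorescence read at ex 490/em 530 nm; activation expressed as fluorescence ratio relative to enzyme without compound.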
For `O=c1c2ccccc2c(-c2ccc[n+]([O-])c2)nn1-c1ccc(F)cc1F` [Example 117, 3-(3-(2,4-Difluorophenyl)-4-oxo-3,4-dihydrophthalazin-1-yl)pyridine 1-oxide], the “Sirt6 Activity (% activity, 10 μM)” value came to 318 % activity.

For the compound `CC(C)/[N+]([O-])=C/c1ccc(-c2nn(-c3ccc(F)cc3)c(=O)c3ccccc23)o1` [Example 48, (Z)-1-(5-(3-(4-Fluorophenyl)-4-oxo-3,4-dihydrophthalazin-1-yl)furan-2-yl)-N-isopropylmethanimine Oxide], the “Sirt6 Activity (% activity, 10 μM)” value is reported as 107 % activity.

Consider `CNS(=O)(=O)c1cccc(-c2nn(-c3ccccc3)c(=O)c3cc(F)ccc23)c1` [Example 113, 3-(6-Fluoro-4-oxo-3-phenyl-3,4-dihydrophthalazin-1-yl)-N-methylbenzenesulfonamide], for which the “Sirt6 Activity (% activity, 10 μM)” value is recorded as 116 % activity.

Turning to `CC(C)(C(=O)NC1CC1)c1cccc(-c2nn(-c3ccc(F)cc3F)c(=O)c3ccccc23)c1` [Example 178, N-Cyclopropyl-2-(3-(3-(2,4-difluorophenyl)-4-oxo-3,4-dihydrophthalazin-1-yl)phenyl)-2-methyl Propanamide], the “Sirt6 Activity (% activity, 10 μM)” value is 331.00 % activity.

Consider `CC(C)NC(=O)C(C)(C)c1cccc(-c2nn(-c3ccc(F)cc3F)c(=O)c3ccccc23)c1` [Example 176, 2-(3-(3-(2,4-Difluorophenyl)-4-oxo-3,4-dihydrophthalazin-1-yl)phenyl)-N-isopropyl-2-methylpropanamide], for which the “Sirt6 Activity (% activity, 10 μM)” value came to 244.30 % activity.

As for `CN(C)S(=O)(=O)N(C)c1cccc(-c2nn(-c3ccc(F)cc3)c(=O)c3ccccc23)c1` [Example 75, N-(3-(3-(4-Fluorophenyl)-4-oxo-3,4-dihydrophthalazin-1-yl)phenyl)-N-methyl-dimethyl Sulfamoylamide], the “Sirt6 Activity (% activity, 10 μM)” value came to 139 % activity.

For the compound `CCS(=O)(=O)Nc1cncc(-c2nn(-c3ccc(F)cc3)c(=O)c3ccccc23)c1` [Example 82, N-(5-(3-(4-Fluorophenyl)-4-oxo-3,4-dihydrophthalazin-1-yl)pyridin-3-yl)ethanesulfonamide], the “Sirt6 Activity (% activity, 10 μM)” value worked out at 111 % activity.

`CCS(=O)(=O)Nc1cccc(-c2cn(-c3ccc(F)cc3)c(=O)c3ccncc23)c1` [Example 149, N-(3-(2-(4-Fluorophenyl)-1-oxo-1,2-dihydropyrido[3,4-d]pyridin-4-yl)phenyl)ethanesulfonamide]: the “Sirt6 Activity (% activity, 10 μM)” value was found to be 114.9 % activity.

Turning to `C/[N+]([O-])=C/c1ccccc1-c1nn(-c2ccc(F)cc2)c(=O)c2ccccc12` [Example 40, (Z)-1-(2-(3-(4-Fluorophenyl)-4-oxo-3,4-dihydrophthalazin-1-yl)phenyl)-N-methylmethanimine Oxide], the “Sirt6 Activity (% activity, 10 μM)” value amounted to 160 % activity.

`CC(C)(C)/[N+]([O-])=C/c1cccc(-c2nn(-c3ccc(F)cc3)c(=O)c3ccccc23)c1` [Example 43, (Z)—N-tert-Butyl-1-(3-(3-(4-fluorophenyl)-4-oxo-3,4-dihydrophthalazin-1-yl)phenyl)methanimine Oxide]: the “Sirt6 Activity (% activity, 10 μM)” value stood at 205 % activity.

For `CC(C)/[N+]([O-])=C\c1ccc(-c2nn(-c3ccc(F)cc3)c(=O)c3ccccc23)c(F)c1` [Example 39, (E)-1-(3-Fluoro-4-(3-(4-fluorophenyl)-4-oxo-3,4-dihydrophthalazin-1-yl)phenyl)-N-isopropylmethanimine Oxide], the “Sirt6 Activity (% activity, 10 μM)” value is given as 106 % activity.

In the case of `COC(=O)c1cccc(-c2nn(-c3ccc(F)cc3)c(=O)c3ccccc23)c1` [Example 66, Methyl 3-(3-(4-fluorophenyl)-4-oxo-3,4-dihydrophthalazin-1-yl)benzoate], the “Sirt6 Activity (% activity, 10 μM)” value amounted to 103 % activity.

The experiment is the same for the next values; noted with them: compound at 10 μM; fluorescence relative to the group without compound treatment (positive control group); 10 µM.
Regarding `CC(C)(C(=O)O)C1CCCN(c2nn(-c3ccc(F)cc3F)c(=O)c3ccccc23)C1` (stereo not shown) [Example 210-1, 2-(1-(3-(2,4-Difluorophenyl)-4-oxo-3,4-dihydrophthalazin-1-yl)piperidin-3-yl)-2-methylpropanoic Acid], the “Sirt6 Activity (% activity, 10 μM)” value stood at 199.00 % activity.
